Experimental data from patent US11918550B2, “Sensitization of cancer cells to differentiation therapy with mitochondrial uncoupler niclosamide ethanolamine” (The Board of Trustees of the Leland Stanford Junior …, priority 2020, dated 2024).

Legend:
[1] = tested on: orthotopic neuroblastoma xenograft (SK-N-BE(2) cells); test: Orthotopic neuroblastoma xenograft model, tumor growth by ultrasound; type: in vivo, mice; settings: diet 2000 ppm NEN (n=4) vs control group (n=6)
Description: Mouse orthotopic neuroblastoma model. All mouse procedures were performed in accordance with Stanford University recommendations for the care and use of animals and were maintained and handled under protocols approved by the Institutional Animal Care and Use Committee. All procedures were performed with female NC nude mice (Taconic, Hudson, NY, USA) at 7 weeks of age. Procedures and ultrasound measurements (see below) were performed under general anesthesia using isoflurane inhalation. Orthotopic tumors within the adrenal gland were created as described before 16. Briefly, a transverse incision was made on the left flank to locate the left adrenal gland, and […] of phosphate buffered saline (PBS) containing […] SK-N-BE(2) cells were injected into the adrenal gland using a 30 G needle. Fascia and skin were closed in separate layers. Tumor formation was monitored by non-invasive ultrasound measurements, and the animals euthanized when the tumor volume exceeded 1,000 mm^3. Monitoring tumor growth with high frequency ultrasound. After securing the mouse in a prone position, a Visual Sonics Vevo 2100 sonographic probe (Toronto, Ontario, Canada) was applied to the left flank to locate the left adrenal gland and the tumor. […] The tumor volume was measured using the 3-D reconstruction tool (Vevo Software v1.6.0, Toronto, Ontario, Canada).

SK-N-BE(2) cells [2] = test: Relative intracellular metabolite levels by LC/MS; type: cell-based
Description: (§1) Metabolic analysis. For the metabolomics and isotope tracing analysis in vitro, cells were washed with cold PBS, lysed in 80% Ultra LC-MS acetonitrile on ice for 15 minutes, centrifuged at 20,000 g for 10 minutes at 4° C., and supernatant was subjected to mass spectrometry analysis. For the metabolomics analysis in vivo, 10-20 mg tissue were cut off on ice, rinsed if necessary to remove blood, and place in a 2 ml round-bottom cryovial. The tissues were homogenized by 3 times 10 s on/off bursts homogenization in 1 ml 80% methanol on dry ice. Transfer the homogenate to an Eppendorf tube and keep on liquid nitrogen while processing the remaining samples. Incubated all the samples in −80° C. for 30 minutes. After incubation, vortexed the samples for 5 seconds. Then centrifuged the samples at 20,000 g for 10 minutes at 4° C., and supernatant was subjected to mass spectrometry analysis. Resuspend the remaining cellular pellet in 100 ul protein lysis buffer and determine the protein concentration. Then calculate the total protein content per sample.
(§2) Liquid chromatography was performed using an Agilent 1290 Infinity LC system (Agilent, Santa Clara, US) coupled to a Q-TOF 6545 mass spectrometer (Agilent, Santa Clara, US). A hydrophilic interaction chromatography method (HILIC) with a BEH amide column (100×2.1 mm i.d., 1.7 μm; Waters) was used for compound separation at 35° C. with a flow rate of 0.3 ml/minutes. The mobile phase A consisted of 25 mM ammonium acetate and 25 mM ammonium hydroxide in water and mobile phase B was acetonitrile. The gradient elution was 0-1 minute, 85% B; 1-12 minutes, 85% B→65% B; 12-12.2 minutes, 65% B→40% B; 12.2-15 minutes, 40% B. After the gradient, the column was re-equilibrated at 85% B for 5 minutes. The overall runtime was 20 minutes, and the injection volume was 5 μL. Agilent Q-TOF was operated in negative mode and the relevant parameters were as listed: ion spray voltage, 3500 V; nozzle voltage, 1000 V; fragmentor voltage, 125 V; drying gas flow, 11 L/minutes; capillary temperature, 325° C., drying gas temperature, 350° C.; and nebulizer pressure, 40 psi. A full scan range was set at 50 to 1600 (m/z). The reference mass was 119.0363 and 980.0164. The acquisition rate was 2 spectra/s. Targeted analysis, isotopologues extraction and natural isotope abundance correction were performed by Agilent Profinder B.10.00 (Agilent Technologies).

NB16 cells = test: Relative intracellular metabolite levels by LC/MS; type: cell-based
Description: as §1, §2

SK-N-BE(2) cells [3] = test: Infinium Methylation EPIC array, locus-specific DNA methylation; type: cell-based
Description: DNA microarray analysis. DNA extraction was carried out with samples were extracted by using PureLink™ Genomic DNA Mini Kit (Gibco, K182001), according to the protocol provided by the supplier. The DNA was quantified with the Nanodrop and 3 ug was used for bisulfite modification using the EZ DNA methylation kit (D5001, Zymo Research, Orange, CA) according to the protocol provided with the modification step according to the recommendations for array processing of the samples. Control PCR reactions were carried out before array analysis to confirm successful modification of the DNA. The bisulfite-modified DNA (500 ng) was applied to the Infinium MethylationEPIC array (Illumina). After bisulfite treatment of the DNA samples, the cytosines in the CpG sites were genotyped as C/T polymorphisms according to the manufacturer's protocol. Raw array data was collected with 866 k probes for 8 samples across 4 stages (those are control, 5 hours, 24 hours and 48 hours). The fluorescence signals were measured from the BeadArrays using an Illumina BeadStation GX scanner.
The fluorescence data were then analyzed using the GenomeStudio software (Illumina). The software assigns a score called a “b value” to each CpG site, which corresponds to the ratio between the fluorescence signal of the methylated allele (C) and the sum of the fluorescent signals of the methylated (C) and unmethylated (T) alleles. The data generated by the BeadStudio software was exported and further analyses were performed in the R programming environment. Then a detection p-value for every probe in every sample, representing the quality of the signal is generated using method minfi. Poor probes with all samples' p-values larger than or equal to 0.01 are removed which results in 864 k probes left. For methylation levels estimations we use M-Values (log 2 based Methylation signal over unmethylation signal) for analysis.
Differential Methylation Probes are identified by first standardizing M-Values with both rows and columns and then enforced certain direction (hypermethylated or hypomethylated) between control versus treatments. The p-values used in the volcano plot is calculated through Fisher' method by combining quality p-value for all samples with each probe.

[4] = SK-N-BE(2) cells, 1 μM NEN 2 h or 5 h vs DMSO
[5] = SK-N-BE(2) cells, 1 μM NEN 5 h vs DMSO
[6] = SK-N-BE(2), 1 μM NEN under hypoxia 3 h or 6 h

In the case of O=C(Nc1ccc([N+](=O)[O-])cc1Cl)c1cc(Cl)ccc1O [NEN, 5-chloro-N-(2-chloro-4-nitrophenyl)-2-hydroxybenzamide compound with 2-aminoethanol (1:1)], the tumor growth [1] is reported as “significantly slowed”, the aspartate level (SK-N-BE(2) cells [2]; [4]) is reported as “accumulated” and the citrate level (SK-N-BE(2) cells [2]; [4]) is reported as “not affected”. For the same compound, the fumarate level (SK-N-BE(2) cells [2]; [4]) was “no significant increase”, the “intracellular α-KG levels” value (SK-N-BE(2) cells [2]; [4]) was “increased significantly” and the malate level (SK-N-BE(2) cells [2]; [4]) was “no significant increase”. For the same compound, the succinate level (SK-N-BE(2) cells [2]; [4]) was “accumulated”, the intracellular glutamate level (SK-N-BE(2) cells [2]; [5]) was “significantly reduced” and the intracellular glutamine level (SK-N-BE(2) cells [2]; [5]) was “significantly reduced”. For the same compound, the “2-HG levels under hypoxia” value (SK-N-BE(2) cells [2]; [6]) was “significantly reduced”, the “α-KG level under hypoxia” value (SK-N-BE(2) cells [2]; [6]) was “partially restored” and the aspartate level (NB16 cells; 1 μM NEN 2 h or 5 h vs DMSO) was “accumulated”. The citrate level (NB16 cells; 1 μM NEN 2 h or 5 h vs DMSO) was “not affected”, the fumarate level (NB16 cells; 1 μM NEN 2 h or 5 h vs DMSO) was “no significant increase” and the “intracellular α-KG levels” value (NB16 cells; 1 μM NEN 2 h or 5 h vs DMSO) was “increased significantly”. The malate level (NB16 cells; 1 μM NEN 2 h or 5 h vs DMSO) was “no significant increase”, the succinate level (NB16 cells; 1 μM NEN 2 h or 5 h vs DMSO) was “accumulated” and the intracellular glutamate level (NB16 cells; 1 μM NEN 5 h vs DMSO) was “significantly reduced”. For the same compound, the intracellular glutamine level (NB16 cells; 1 μM NEN 5 h vs DMSO) was “significantly reduced”, the “differentially methylated sites close to transcription start sites (TSS200, 1st exon)” value (SK-N-BE(2) cells [3]; 1 μM NEN 24 or 48 hours) was “more hypomethylated sites than hypermethylated sites” and the “differentially methylated sites in 'shelf' and 'shore' regions (vs CpG islands)” value (SK-N-BE(2) cells [3]; 1 μM NEN 24 or 48 hours) was “opposite trend”. The “differentially methylated sites in CpG islands” value (SK-N-BE(2) cells [3]; 1 μM NEN 24 or 48 hours) was “more hypo-methylated sites than hyper-methylated sites”, the “differentially methylated sites in the gene body and 3′ UTR region” value (SK-N-BE(2) cells [3]; 1 μM NEN 24 or 48 hours) was “more hypermethylated sites than hypomethylated sites” and the “DNA methylation levels of CpG sites in the promoter region of p53 and CTNNBIP1” value (SK-N-BE(2) cells [3]; 1 μM NEN 24 h) was “upregulated/downregulated”.
